Results reported in patent US20080280997A1, “Novel Pharmaceutical or Cosmetic Carriers Containing Cyclic Acetals” (GATTEFOSSE SAS, priority 2004, published 2008).
“Also recorded” adds a separate entry of the source.

Columns and labels:
Format in all cases: physicochemical
Miscibility in water = experiment: Miscibility in water
Excerpt: The BDM molecule is produced following the same process as that used in example 1 (without solvents), using pentanal and glycerol. The substance obtained is confirmed by GC-MS analysis. Its water solubility is approximately 2 g in 100 g water. Beyond that, turbidity appears.

[1] = Solubilisation of non-water soluble active ingredients in water assisted by solvent
Excerpt: Five hydrophobic active ingredients were solubilised in water using EDM.
The following table indicates what mass of solvent (g) must be added to solubilise 1 g of a mixture comprising 98% water and 2% active ingredient.
The smaller the quantity of solvent to be added, the greater its solubilising power.

[2] = Stability of the pH of an EDM solution; settings: 5% EDM
Experimental: The stability of solutions at different pHs after adding 5% EDM was studied.
The different solutions were prepared: • using citric acid and Na2HPO4 for pHs between 3 and 7, • using boric acid, KCl and NaOH for pHs between 8 and 10.

[3] = Solubility of EDM in oils, alcohols and water
Excerpt: 3/ Solubility of EDM in Oils and Alcohols
The solubility of EDM is studied in various oils, alcohols and water. The solubility results are expressed in g of EDM incorporable into 100 g of oil or ester before turbidity appears.

[4] = Solubilisation of UV filters with ETP, EDM and PDM; settings: for Solubility of 1,2-butyl methoxydibenzoylmethane in the solvent: UV filter 1,2-butyl methoxydibenzoylmethane; for Solubility of Benzophenone-3 in the solvent: UV filter Benzophenone-3
Experimental: 4/ Solubilisation of Filters with ETP, EDM and PDM
The solubility of two organic UV filters (benzophenone-3 et 1,2-butyl methoxydibenzoylmethane) are assessed in ETP, EDM and PDM.
• homogenise the mixture for 30 seconds in a vortex mixer, • apply ultrasounds for 15 minutes (repeat if the filter is not miscible up to a maximum of 60 minutes), • for the following percentages, an identical quantity of UV filter is always added to a set initial quantity of solvent.
Solubility is expressed in g of filter soluble in 100 g of final solution.

Solubility in oils = settings: before turbidity appears
[5] = Compatibility of EDM with gelling agents
Excerpt: We tested the influence of 5% EDM in gels produced using gelling agents with different chemical natures.

[6] = Solubilisation of active ingredients in EDM; settings: solubility in EDM
Experimental: 5/ Solubilisation of Active Ingredients in EDM
The solubility of the various active ingredients in EDM was studied. It is expressed in g of active ingredient soluble in 100 ml of EDM.

[7] = active ingredient Bisabolol nat.
[8] = active ingredient Eusolex 4360 (Benzophenone 3)
[9] = active ingredient HE eucalyptus (Eucalyptus globulus leaf oil)
[10] = active ingredient Vitamin E (Tocopherol)
[11] = buffer solution initial pH 4.25
[12] = buffer solution initial pH 6.15
[13] = buffer solution initial pH 7.15
[14] = buffer solution initial pH 10.0

2-butyl-1,3-dioxolane-4-hydroxymethyl and 2-butyl-1,3-dioxan-5-ol [BDM]
water solubility (Miscibility in water; beyond that, turbidity appears): approximately 2 g in 100 g water | Miscibility in water (Miscibility in water): not miscible in water; also recorded: Non-miscible

2-ethyl-4-hydroxymethyl-1,3-dioxolane and 2-ethyl-1,3-dioxan-5-ol [EDM]
Mass of solvent to solubilise 1 g of mixture 98% water and 2% active ingredient [1, 7]: 0.9 g | Mass of solvent to solubilise 1 g of mixture 98% water and 2% active ingredient [1, 8]: 1.7 g | Mass of solvent to solubilise 1 g of mixture 98% water and 2% active ingredient [1, 9]: 1 g | Mass of solvent to solubilise 1 g of mixture 98% water and 2% active ingredient ([1]; active ingredient Menthol): 0.7 g | Mass of solvent to solubilise 1 g of mixture 98% water and 2% active ingredient [1, 10]: 2.0 g | pH after adding EDM ([2]; buffer solution initial pH 3.1): 3.15 | pH at 1 month ([2]; buffer solution initial pH 3.1): 3 | pH after adding EDM [2, 11]: 4.3 | pH at 1 month [2, 11]: 4.2 | pH after adding EDM ([2]; buffer solution initial pH 5.1): 5.15 | pH at 1 month ([2]; buffer solution initial pH 5.1): 5.1 | pH after adding EDM [2, 12]: 6.2 | pH at 1 month [2, 12]: 6.1 | pH after adding EDM [2, 13]: 7.2 | pH at 1 month [2, 13]: 7.1 | pH after adding EDM ([2]; buffer solution initial pH 8.0): 8.0 | pH at 1 month ([2]; buffer solution initial pH 8.0): 8.0 | pH after adding EDM ([2]; buffer solution initial pH 9.0): 9.1 | pH at 1 month ([2]; buffer solution initial pH 9.0): 9.0 | pH after adding EDM [2, 14]: 10.0 | pH at 1 month [2, 14]: 10.0 | pH variations observed ([2]; buffer solutions pH 3 to 10, not significant): approximately 0.1 pH units | EDM mass ([3]; in Apricot kernel oil): >100 g of EDM incorporable into 100 g of oil or ester | EDM mass ([3]; in Arlamol E (PPG-15 Stearyl Ether)): >100 g of EDM incorporable into 100 g of oil or ester | EDM mass ([3]; in Butylene Glycol): >100 g of EDM incorporable into 100 g of oil or ester | EDM mass ([3]; in Castor oil): >100 g of EDM incorporable into 100 g of oil or ester | EDM mass ([3]; in DPPG (Propylene glycol dipelargonate)): >100 g of EDM incorporable into 100 g of oil or ester | EDM mass ([3]; in Glycerine): >100 g of EDM incorporable into 100 g of oil or ester | EDM mass ([3]; in IPM (Isopropyl myristate)): >100 g of EDM incorporable into 100 g of oil or ester | EDM mass ([3]; in Labrafac CC (Caprylic/capric triglyceride)): >100 g of EDM incorporable into 100 g of oil or ester | EDM mass ([3]; in PEG-300): >100 g of EDM incorporable into 100 g of oil or ester | EDM mass ([3]; in Propylene Glycol): >100 g of EDM incorporable into 100 g of oil or ester | EDM mass ([3]; in Tegosoft TN (C12/C15 alkyl benzoate)): >100 g of EDM incorporable into 100 g of oil or ester | EDM mass ([3]; in Water): >100 g of EDM incorporable into 100 g of oil or ester | Miscibility in water (Miscibility in water): Miscible | Solubility of 1,2-butyl methoxydibenzoylmethane in the solvent [4]: >32 g of filter soluble in 100 g of final solution | Solubility of Benzophenone-3 in the solvent [4]: >40 g of filter soluble in 100 g of final solution | Solubility in Medium-chain triglyceride (MCT) (Solubility in oils): >100 g of solvent solubilised in 100 g of oil or ester | Solubility in Octyldodecanol myristate (ODM) (Solubility in oils): 50 g of solvent solubilised in 100 g of oil or ester | Solubility in Sunflower oil (Solubility in oils): >100 g of solvent solubilised in 100 g of oil or ester | Viscosity variation ([5]; 5% EDM in gels of Blanose 7HF, Jaguar HP 105, Keltrol T, Natrosol 250HX (cell wraps: Small variation)): Small | Viscosity drop ([5]; 5% EDM in gels of Novemer EC-1, Sepigel 305): Drop >30% | Breaking of gels on adding EDM ([5]; 5% EDM, gelling agents of the different families tested): none of the gels formulated is broken

2-propyl-4-hydroxymethyl-1,3-dioxolane with 2-propyl-1,3-dioxan-5-ol [PDM]
Miscibility in water (Miscibility in water): Miscible | Solubility of 1,2-butyl methoxydibenzoylmethane in the solvent [4]: 22 g of filter soluble in 100 g of final solution | Solubility of Benzophenone-3 in the solvent [4]: 18 g of filter soluble in 100 g of final solution | Solubility in Medium-chain triglyceride (MCT) (Solubility in oils): >100 g of solvent solubilised in 100 g of oil or ester | Solubility in Octyldodecanol myristate (ODM) (Solubility in oils): 100 g of solvent solubilised in 100 g of oil or ester | Solubility in Sunflower oil (Solubility in oils): >100 g of solvent solubilised in 100 g of oil or ester

CO[C@H]1CO[C@H]2[C@@H]1OC[C@H]2OC [Arlasolve DMI, Dimethyl Isosorbide, reference compound]
Mass of solvent to solubilise 1 g of mixture 98% water and 2% active ingredient [1, 7]: 2.3 g | Mass of solvent to solubilise 1 g of mixture 98% water and 2% active ingredient [1, 8]: 2.3 g | Mass of solvent to solubilise 1 g of mixture 98% water and 2% active ingredient [1, 9]: 2.2 g | Mass of solvent to solubilise 1 g of mixture 98% water and 2% active ingredient ([1]; active ingredient Menthol): 1.7 g | Mass of solvent to solubilise 1 g of mixture 98% water and 2% active ingredient [1, 10]: 5.0 g

CC(C)=CCC[C@](C)(O)C1CC=C(C)CC1 (some centres unmarked) [Bisabolol nat., Bisabolol]
Mass of active ingredient (g) [6]: >100 g of active ingredient soluble in 100 ml of EDM

CCC1(CO)COC(C)OC1 (centres unmarked) [ETP, 2-methyl-5-ethyl-5-hydroxymethyl-1,3-dioxane]
Miscibility in water (Miscibility in water): Miscible | Solubility of 1,2-butyl methoxydibenzoylmethane in the solvent [4]: 5 g of filter soluble in 100 g of final solution | Solubility of Benzophenone-3 in the solvent [4]: 35 g of filter soluble in 100 g of final solution | Solubility in Medium-chain triglyceride (MCT) (Solubility in oils): >100 g of solvent solubilised in 100 g of oil or ester | Solubility in Octyldodecanol myristate (ODM) (Solubility in oils): 100 g of solvent solubilised in 100 g of oil or ester | Solubility in Sunflower oil (Solubility in oils): >100 g of solvent solubilised in 100 g of oil or ester

CC1CCC(C(C)C)C(O)C1 (centres unmarked) [Menthol]
Mass of active ingredient (g) [6]: >100 g of active ingredient soluble in 100 ml of EDM

CCCCC(CC)COC(=O)C=Cc1ccc(OC)cc1 (centres unmarked) [Parsol MCX, Ethylhexyl methoxycinnamate]
Mass of active ingredient (g) [6]: >100 g of active ingredient soluble in 100 ml of EDM

Glycerol formal [reference compound]
Miscibility in water (Miscibility in water): Miscible | Solubility in Medium-chain triglyceride (MCT) (Solubility in oils): <12 g of solvent solubilised in 100 g of oil or ester | Solubility in Octyldodecanol myristate (ODM) (Solubility in oils): <12 g of solvent solubilised in 100 g of oil or ester | Solubility in Sunflower oil (Solubility in oils): 12 g of solvent solubilised in 100 g of oil or ester

Retinal [Vitamin A]
Mass of active ingredient (g) [6]: >100 g of active ingredient soluble in 100 ml of EDM

Tocopherol [Vitamin E]
Mass of active ingredient (g) [6]: >100 g of active ingredient soluble in 100 ml of EDM
